Each structure is given as a SMILES string.

As usually defined, the melting point is the temperature of the solid-liquid transition. On to `NC1CCn2c1nc1cc(NC(=O)c3cc4cc(F)ccc4n3Cc3cccc(F)c3)cnc12` (racemic) [Compound 34, N-(6-Amino-7,8-dihydro-6H-pyrrolo[2′,1′:2,3]imidazo[4,5-b]pyridin-3-yl)-5-fluoro-1-(3-fluorobenzyl)-1H-indole-2-carboxamide], for which the melting point is 218 to 220 °C.

`O=C(Nc1cnc2c(c1)nc1n2CCC1O)c1cc2ccc(C(F)(F)F)cc2n1Cc1cccc(F)c1` (single isomer, unassigned; (-)) [Compound 28, (−)-N-(6-Hydroxy-7,8-dihydro-6H-pyrrolo[2′,1′:2,3]imidazo[4,5-b]pyridin-3-yl)-6-trifluoromethyl-1-(3-fluorobenzyl)-1H-indole-2-carboxamide]: the melting point was 269 to 271 °C.

`CS(=O)(=O)c1ccc2c(c1)cc(C(=O)Nc1cnc3c(c1)nc1n3CCC1)n2Cc1cccc(F)c1` [Compound 21, N-(7,8-Dihydro-6H-pyrrolo[2′,1′:2,3]imidazo[4,5-b]pyridin-3-yl)-5-methylsulfonyl-1-(3-fluorobenzyl)-1H-indole-2-carboxamide] had a melting point of 275 to 277 °C.

Compound `O=C(Nc1cnc2c(c1)nc1n2CCC1)c1cc2cccc(F)c2n1Cc1cccc(F)c1` showed a melting point of 237 to 239 °C.

In turn, `O=C(Nc1cnc2c(c1)nc1n2CCC1)c1cc2cc(F)cnc2n1Cc1cccc(F)c1` had a melting point of 242 to 243 °C.

In turn, `O=C(Nc1cnc2c(c1)nc1n2CCC1)c1cc2cc(Cl)ccc2n1Cc1cccc(F)c1` had a melting point of 263 to 264 °C.

`O=C(Nc1cnc2c(c1)nc1n2CCC1O)c1cc2cc(F)ccc2n1Cc1cccc(F)c1` (racemic) displayed a melting point of 288 to 290 °C.

`O=C(Nc1cnc2c(c1)nc1n2CCC1)c1cc2c(F)cccc2n1Cc1cccc(F)c1` yielded a melting point of 265 to 266 °C.

Take `CC(C)(C)c1ccc2c(c1)cc(C(=O)Nc1cnc3c(c1)nc1n3CCC1)n2Cc1cccc(F)c1` [Compound 18, N-(7,8-Dihydro-6H-pyrrolo[2′,1′:2,3]imidazo[4,5-b]pyridin-3-yl)-5-tertbutyl-1-(3-fluorobenzyl)-1H-indole-2-carboxamide]: the melting point lay in the range of 234 to 236 °C.

On to `O=C(Nc1cnc2c(c1)nc1n2CCC1)c1cc2c(Cl)cccc2n1Cc1cccc(F)c1`, for which the melting point is 302 to 303 °C.

Compound `O=C(Nc1cnc2c(c1)nc1n2CCC1)c1cc2ccccc2n1Cc1cccc(F)c1` yielded a melting point of 243 to 244 °C.

On to `O=C(Nc1cnc2c(c1)nc1n2CCC1c1ccccc1)c1cc2cc(C(F)(F)F)ccc2n1Cc1cccc(F)c1` (racemic) [Compound 30, N-(6-Phenyl-7,8-dihydro-6H-pyrrolo[2′,1′:2,3]imidazo[4,5-b]pyridin-3-yl)-5-trifluoromethyl-1-(3-fluorobenzyl)-1H-indole-2-carboxamide], for which the melting point lay within 129 to 130 °C.

In turn, `O=C(Nc1cnc2c(c1)nc1n2CCC1)c1cc2cc(C(F)(F)F)cnc2n1Cc1cccc(F)c1` [Compound 24, N-(7,8-Dihydro-6H-pyrrolo[2′,1′:2,3]imidazo[4,5-b]pyridin-3-yl)-5-trifluoromethyl-1-(3-fluorobenzyl)-1H-pyrrolo[2,3-b]pyridine-2-carboxamide] displayed a melting point of 247 to 249 °C.

Take `O=C(Nc1cnc2c(c1)nc1n2CCC1O)c1cc2cc(C(F)(F)F)ccc2n1Cc1cccc(F)c1` (stereo not drawn) [Compound 26, N-(6-Hydroxy-7,8-dihydro-6H-pyrrolo[2′,1′:2,3]imidazo[4,5-b]pyridin-3-yl)-5-trifluoromethyl-1-(3-fluorobenzyl)-1H-indole-2-carboxamide]: the melting point was 267 to 268 °C.

`Cc1ccc(C)c2c1cc(C(=O)Nc1cnc3c(c1)nc1n3CCC1)n2Cc1cccc(F)c1` displayed a melting point of 286 to 288 °C.

`O=C(Nc1cnc2c(c1)nc1n2CCC1)c1cc2ccc(F)cc2n1Cc1cccc(F)c1` registered a melting point of 235 to 236 °C.

The compound `CC(C)(C)c1ccc2cc(C(=O)Nc3cnc4c(c3)nc3n4CCC3)n(Cc3cccc(F)c3)c2c1` [Compound 19, N-(7,8-Dihydro-6H-pyrrolo[2′,1′:2,3]imidazo[4,5-b]pyridin-3-yl)-6-tertbutyl-1-(3-fluorobenzyl)-1H-indole-2-carboxamide] yielded a melting point of 244 to 245 °C.

In turn, `O=C(Nc1cnc2c(c1)nc1n2CCC1)c1cc2cc(C(F)(F)F)ccc2n1Cc1cccc(F)c1` [Compound 8, N-(7,8-Dihydro-6H-pyrrolo[2′,1′:2,3]imidazo[4,5-b]pyridin-3-yl)-5-trifluoromethyl-1-(3-fluorobenzyl)-1H-indole-2-carboxamide] displayed a melting point of 223 to 225 °C.

Consider `O=C(Nc1cnc2c(c1)nc1n2CCC1)c1cc2ccc(C(F)(F)F)cc2n1Cc1cccc(F)c1` [Compound 7, N-(7,8-Dihydro-6H-pyrrolo[2′,1′:2,3]imidazo[4,5-b]pyridin-3-yl)-6-trifluoromethyl-1-(3-fluorobenzyl)-1H-indole-2-carboxamide], for which the melting point fell in the range of 261 to 262 °C.

The compound `CC(C)c1ccc2cc(C(=O)Nc3cnc4c(c3)nc3n4CCC3)n(Cc3cccc(F)c3)c2c1` [Compound 17, N-(7,8-Dihydro-6H-pyrrolo[2′,1′:2,3]imidazo[4,5-b]pyridin-3-yl)-6-isopropyl-1-(3-fluorobenzyl)-1H-indole-2-carboxamide] showed a melting point of 275 to 278 °C.

`Cc1ccc2cc(C(=O)Nc3cnc4c(c3)nc3n4CCC3)n(Cc3cccc(F)c3)c2c1` gave a melting point of 182 to 183 °C.

`CC(=O)NC1CCn2c1nc1cc(NC(=O)c3cc4cc(F)ccc4n3Cc3cccc(F)c3)cnc12` (racemic) [Compound 35, N-(6-Acetylamino-7,8-dihydro-6H-pyrrolo[2′,1′:2,3]imidazo[4,5-b]pyridin-3-yl)-5-fluoro-1-(3-fluorobenzyl)-1H-indole-2-carboxamide] gave a melting point of 282 to 283 °C.

For `O=C(Nc1cnc2c(c1)nc1n2CCC1)c1cc2ccc(C(F)(F)F)nc2n1Cc1cccc(F)c1` [Compound 23, N-(7,8-Dihydro-6H-pyrrolo[2′,1′:2,3]imidazo[4,5-b]pyridin-3-yl)-6-trifluoromethyl-1-(3-fluorobenzyl)-1H-pyrrolo[2,3-b]pyridine-2-carboxamide], the melting point is 272 to 273 °C.

`CC(=O)OC1CCn2c1nc1cc(NC(=O)c3cc4cc(F)ccc4n3Cc3cccc(F)c3)cnc12` (racemic) [Compound 2, N-(6-Acetoxy-7,8-dihydro-6H-pyrrolo[2′,1′:2,3]imidazo[4,5-b]pyridin-3-yl)-5-fluoro-1-(3-fluorobenzyl)-1H-indole-2-carboxamide] had a melting point of 139 to 141 °C.

For the compound `Cc1cccc2c1cc(C(=O)Nc1cnc3c(c1)nc1n3CCC1)n2Cc1cccc(F)c1`, the melting point fell in the range of 303 to 304 °C.

Regarding `CCc1ccc2cc(C(=O)Nc3cnc4c(c3)nc3n4CCC3)n(Cc3cccc(F)c3)c2c1`, the melting point lay within 224 to 226 °C.

For `O=C(Nc1cnc2c(c1)nc1n2CCC1O)c1cc2cc(C(F)(F)F)cnc2n1Cc1cccc(F)c1` (single isomer, unassigned; (-)) [Compound 36, (−)-N-(6-Hydroxy-7,8-dihydro-6H-pyrrolo[2′,1′:2,3]imidazo[4,5-b]pyridin-3-yl)-5-trifluoromethyl-1-(3-fluorobenzyl)-1H-pyrrolo[2,3-b]pyridine-2-carboxamide], the melting point lay within 279 to 280 °C.

The compound `CSc1ccc2cc(C(=O)Nc3cnc4c(c3)nc3n4CCC3)n(Cc3cccc(F)c3)c2c1` [Compound 22, N-(7,8-Dihydro-6H-pyrrolo[2′,1′:2,3]imidazo[4,5-b]pyridin-3-yl)-6-methylthio-1-(3-fluorobenzyl)-1H-indole-2-carboxamide] gave a melting point of 222 to 223 °C.

Compound `CC1(C)CCn2c1nc1cc(NC(=O)c3cc4cc(C(F)(F)F)ccc4n3Cc3cccc(F)c3)cnc12` [Compound 31, N-(6,6-Dimethyl-7,8-dihydro-6H-pyrrolo[2′,1′:2,3]imidazo[4,5-b]pyridin-3-yl)-5-trifluoromethyl-1-(3-fluorobenzyl)-1H-indole-2-carboxamide] displayed a melting point of 212 to 213 °C.

Consider `CN(C)C1CCn2c1nc1cc(NC(=O)c3cc4cc(C(F)(F)F)ccc4n3Cc3cccc(F)c3)cnc12` (single isomer, unassigned; (-)) [Compound 33, (−)-N-(6-Dimethylamino-7,8-dihydro-6H-pyrrolo[2′,1′:2,3]imidazo[4,5-b]pyridin-3-yl)-5-trifluoromethyl-1-(3-fluorobenzyl)-1H-indole-2-carboxamide], for which the melting point lay in the range of 203 to 205 °C.

Turning to `O=C(Nc1cnc2c(c1)nc1n2CCCC1)c1cc2cc(C(F)(F)F)ccc2n1Cc1cccc(F)c1` [Compound 27, N-(6,7,8,9-Tetrahydroimidazo[1,2-a:5,4-b′]dipyridin-3-yl)-5-trifluoromethyl-1-(3-fluorobenzyl)-1H-indole-2-carboxamide], the melting point was 262 to 263 °C.

`O=C(Nc1cnc2c(c1)nc1n2CCC1)c1cc2ccc(Cl)cc2n1Cc1cccc(F)c1` had a melting point of 252 to 253 °C.

`Cc1ccc2c(c1)cc(C(=O)Nc1cnc3c(c1)nc1n3CCC1)n2Cc1cccc(F)c1` came in with a melting point of 237 to 238 °C.

These data come from US8420817B2, “Tricyclic N-heteroaryl-carboxamide derivatives, preparation and therapeutic use thereof” (Sanofi, priority 2007, dated 2013).
